Results on 12 compounds are retold here after patent publication US10174026B2, “Histone demethylase inhibitors” (CELGENE QUANTICEL RESEARCH, INC., priority 2013, dated 2019).

Sequence of JMJD2C (Q9H3R0 2-372): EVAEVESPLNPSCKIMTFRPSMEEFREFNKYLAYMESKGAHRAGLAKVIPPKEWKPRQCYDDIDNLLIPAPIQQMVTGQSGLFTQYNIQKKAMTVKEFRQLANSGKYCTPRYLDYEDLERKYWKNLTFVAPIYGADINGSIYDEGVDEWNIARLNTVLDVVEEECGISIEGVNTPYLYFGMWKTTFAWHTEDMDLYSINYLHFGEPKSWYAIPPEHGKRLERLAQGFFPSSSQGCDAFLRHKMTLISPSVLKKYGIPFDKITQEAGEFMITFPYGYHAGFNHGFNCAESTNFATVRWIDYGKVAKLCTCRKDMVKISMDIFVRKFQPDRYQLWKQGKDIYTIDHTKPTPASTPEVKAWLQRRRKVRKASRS

The target in one assay is Jarid1A (Homo sapiens (Human), UniProt P29375). Put plainly: Jarid1A in vitro enzyme inhibition assay (TR-FRET). It counts as biochemical.
Sequence of Jarid1A (P29375 1-1090): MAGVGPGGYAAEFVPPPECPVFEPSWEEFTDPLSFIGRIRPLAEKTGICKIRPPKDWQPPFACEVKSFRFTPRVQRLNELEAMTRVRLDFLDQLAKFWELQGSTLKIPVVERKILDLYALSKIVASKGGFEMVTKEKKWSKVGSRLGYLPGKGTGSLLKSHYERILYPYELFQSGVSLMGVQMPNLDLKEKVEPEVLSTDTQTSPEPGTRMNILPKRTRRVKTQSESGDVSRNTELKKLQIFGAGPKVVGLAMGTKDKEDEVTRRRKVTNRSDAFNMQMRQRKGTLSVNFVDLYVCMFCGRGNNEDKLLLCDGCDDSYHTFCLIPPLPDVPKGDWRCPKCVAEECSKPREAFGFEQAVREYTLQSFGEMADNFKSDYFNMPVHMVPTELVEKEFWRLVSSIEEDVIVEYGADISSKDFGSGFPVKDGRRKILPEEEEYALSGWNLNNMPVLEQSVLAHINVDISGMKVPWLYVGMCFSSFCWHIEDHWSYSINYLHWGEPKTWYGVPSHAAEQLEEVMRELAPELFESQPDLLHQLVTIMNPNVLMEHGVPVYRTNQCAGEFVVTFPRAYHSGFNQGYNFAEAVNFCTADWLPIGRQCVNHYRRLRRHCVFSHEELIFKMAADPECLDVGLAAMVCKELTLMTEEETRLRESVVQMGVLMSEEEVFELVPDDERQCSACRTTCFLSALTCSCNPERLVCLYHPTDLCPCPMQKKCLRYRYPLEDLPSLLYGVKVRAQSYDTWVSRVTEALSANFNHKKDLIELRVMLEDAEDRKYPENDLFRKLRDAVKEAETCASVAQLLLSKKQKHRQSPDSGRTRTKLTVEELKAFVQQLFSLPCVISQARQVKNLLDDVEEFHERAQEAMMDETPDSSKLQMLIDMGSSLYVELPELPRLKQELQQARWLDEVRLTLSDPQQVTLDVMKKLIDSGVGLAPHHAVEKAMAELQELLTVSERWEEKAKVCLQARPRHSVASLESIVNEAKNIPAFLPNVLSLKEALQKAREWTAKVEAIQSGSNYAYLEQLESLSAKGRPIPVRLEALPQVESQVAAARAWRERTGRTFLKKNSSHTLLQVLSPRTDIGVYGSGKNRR
Details: not given
The procedure: (§1) This assay determines the ability of a test compound to inhibit Jarid1A, Jarid1B, JMJD2C, and JMJD2A demethylase activity.
The enzymatic assay of Jarid1A activity is based upon Time Resolved-Fluorescence Resonance Energy Transfer (TR-FRET) detection.
The assay reaction was initiated by the following: 2 μl of the mixture of 900 nM H3K4me3-biotin labeled peptide and 6 μM alpha-ketoglutaric acid with 2 μl of 11-point serial diluted inhibitor in 3% DMSO was added to each well of plate, followed by the addition of 2 μl of 3 nM Jarid1A to initiate the reaction. The reaction mixture was incubated at room temp for 30 min, and terminated by the addition of 6 μl of 5 mM EDTA in LANCE detection buffer containing 50 nM Phycolink Streptavidin-allophycocyanin and 2 nM Europium-anti-H3K4me1-2 antibody.
(In TR-FRET formats the signal depends on donor and acceptor labels being close together.)
For orientation: IC50 means the concentration that gives 50% inhibition. Higher therefore signals lower potency. With “(±)-methyl 2-(1-hydroxy-2-methylpropyl)-1H-pyrrolo[3,2-b]-pyridine-7-carboxylate [Example 30]”, the IC50 lay within 100 to 1000 nM.

The next assay deals with Jarid1B (Homo sapiens (Human), UniProt Q9UGL1). Description: Jarid1B in vitro enzyme inhibition assay (TR-FRET). It counts as biochemical.
Sequence of Jarid1B (Q9UGL1 2-751): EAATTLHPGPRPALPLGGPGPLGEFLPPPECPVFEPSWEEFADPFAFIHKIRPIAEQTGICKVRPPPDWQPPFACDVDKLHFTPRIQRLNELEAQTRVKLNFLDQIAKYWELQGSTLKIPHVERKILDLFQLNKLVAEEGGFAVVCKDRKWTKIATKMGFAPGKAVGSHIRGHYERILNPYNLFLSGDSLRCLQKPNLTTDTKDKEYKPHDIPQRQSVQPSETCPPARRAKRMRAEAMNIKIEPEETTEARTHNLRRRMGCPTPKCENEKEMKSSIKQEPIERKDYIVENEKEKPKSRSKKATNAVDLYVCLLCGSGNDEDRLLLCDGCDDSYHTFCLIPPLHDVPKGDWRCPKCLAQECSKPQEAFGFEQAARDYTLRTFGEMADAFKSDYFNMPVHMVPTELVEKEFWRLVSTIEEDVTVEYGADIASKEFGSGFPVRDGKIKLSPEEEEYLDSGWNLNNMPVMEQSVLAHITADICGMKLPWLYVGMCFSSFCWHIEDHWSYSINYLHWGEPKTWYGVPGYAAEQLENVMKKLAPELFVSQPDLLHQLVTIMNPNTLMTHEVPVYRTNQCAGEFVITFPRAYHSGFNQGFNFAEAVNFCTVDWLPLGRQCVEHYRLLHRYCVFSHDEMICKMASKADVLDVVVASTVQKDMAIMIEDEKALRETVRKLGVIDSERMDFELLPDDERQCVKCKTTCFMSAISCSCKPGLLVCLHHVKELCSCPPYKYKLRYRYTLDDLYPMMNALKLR
Details: not given
On the procedure: as §1
The reaction mixture was incubated at room temp for 30 min, and terminated by the addition of 6 μl of 5 mM EDTA in LANCE detection buffer containing 50 nM Phycolink Streptavidin-allophycocyanin and 2 nM Europium-anti-H3K4me1-2 antibody.
The compound “(±)-methyl 2-(1-hydroxy-2-methylpropyl)-1H-pyrrolo[3,2-b]-pyridine-7-carboxylate [Example 30]” registered an IC50 of less than 100 nM.

The next assay addresses JMJD2C (Homo sapiens (Human), UniProt Q9H3R0). Description: JMJD2C in vitro enzyme inhibition assay (TR-FRET). Format: biochemical.
Details: not given
On the procedure: as §1
Reaction product was determined quantitatively by TR-FRET after the addition of detection reagent Phycolink Streptavidin-allophycocyanin (Prozyme) and Europium-anti-di-methylated histone H3 lysine 9 (H3K9me2) antibody (PerkinElmer) in the presence of 5 mM EDTA in LANCE detection buffer (PerkinElmer) at a final concentration of 50 nM and 1 nM, respectively.
As to “(±)-methyl 2-(1-hydroxy-2-methylpropyl)-1H-pyrrolo[3,2-b]-pyridine-7-carboxylate [Example 30]”, the IC50 is less than 100 nM.

In the next assay the test system is KYSE-150 cell line. Description: In vitro cell-based assay, KYSE-150 cell line: BrdU cell proliferation ELISA. The settings on record: Homo sapiens; KYSE-150 cells, 168 hr, BrdU incorporation. The procedure:
The primary cellular assay for JMJD2C inhibition is an assay which measures cellular proliferation via Bromodeoxyuridine (BrdU) incorporation after 168 hr of compound incubation. This assay is a quantitative ELISA assay measuring DNA incorporation of BrdU during S-phase as a direct readout of cellular proliferation. The KYSE-150 cell line is a JMJD2C gene amplified cell line.
This is a colorimetric immunoassay for the quantification of cell proliferation. Cells treated for 168 hr with test compounds are assayed for their ability to go through S-phase as a measure of their proliferative potential.
The human KYSE-150 (SMAD4 mut, TP53 mut) esophageal carcinoma cell line was seeded at 2,000 cells/well on a 96-well tissue culture treated plate. After an overnight incubation, cells were treated with a test compound in an 11 point dilution series with final concentrations ranging from 100 μM to 2 nM. Cells were then incubated in the presence of compound for 168 hr. After compound incubation, the cells were assayed using a BrdU Cell Proliferation ELISA (Roche). The cells were first incubated with BrdU labeling reagent for 2 hr. After 2 hr, these BrdU incorporated cells were fixed and denatured, probed with an anti-BrdU-Peroxidase antibody for 1.5 hr and washed. Finally, a tetramethylbenzidine peroxidase substrate was added to each well for 15 min followed by H2SO4 stop solution. The plate is read at 450 nm, and the raw optical density data is transferred into XLFit (IDBS) for IC50 calculation using the formula: fit=(D+((Vmax*(x^n))/((x^n)+(Km^n))))
For orientation: ELISA stands for enzyme-linked immunosorbent assay.
The compound `COC(=O)c1ccnc2cc(Cc3cc(F)c(Cl)c(Cl)c3)[nH]c12` [Example 131, methyl 2-(3,4-dichloro-5-fluorobenzyl)-1H-pyrrolo-[3,2-b]pyridine-7-carboxylate] gave an IC50 of less than 100 nM.

Consider `COC(=O)c1ccnc2cc(Cc3ccc(Cl)c(C)c3)[nH]c12` [Example 133, methyl-2-(4-chloro-3-methylbenzyl)-1H-pyrrolo-[3,2-b]pyridine-7-carboxylate], for which the IC50 was 100 to 1000 nM.

Consider `CNC(=O)c1ccnc2cc(Cc3ccc(Cl)cc3)[nH]c12` [Example 143, 2-[4-chloro-benzyl]-N-methyl-1H-pyrrolo[3,2-b]pyridine-7-carboxamide], for which the IC50 was in the range of 100 to 1000 nM.

With `COC(=O)c1ccnc2cc(Cc3ccc(Cl)c(OCC(F)(F)F)c3)[nH]c12` [Example 139, methyl-2-[4-chloro-3-(2,2,2-trifluoroethoxy)benzyl]-1H-pyrrolo[3,2-b]pyridine-7-carboxylate], the IC50 is less than 100 nM.

The compound `COC(=O)c1ccnc2cc(Cc3ccc(Cl)c(OC)c3)[nH]c12` [Example 127, methyl 2-(4-chloro-3-methoxybenzyl)-1H-pyrrolo-[3,2-b]-pyridine-7-carboxylate] had an IC50 of less than 100 nM.

Compound `COC(=O)c1ccnc2cc(Cc3ccc(F)c(F)c3)[nH]c12` [Example 125, methyl 2-(3,4-difluorobenzyl)-1H-pyrrolo[3,2-b]pyridine-7-carboxylate] showed an IC50 of 1000 to 10000 nM.

Consider `COC(=O)c1ccnc2cc(Cc3ccc(Cl)c(OC(F)(F)F)c3)[nH]c12` [Example 141, methyl-2-[4-chloro-3-(trifluoromethoxy)benzyl]-1H-pyrrolo[3,2-b]pyridine-7-carboxylate], for which the IC50 was less than 100 nM.

In turn, `COC(=O)c1ccnc2cc(Cc3ccc(Cl)c(OCC4CC4)c3)[nH]c12` [Example 137, methyl 2-[4-chloro-3-(cyclo-propylmethoxy)benzyl]-1H-pyrrolo[3,2-b]pyridine-7-carboxylate] returned an IC50 of less than 100 nM.

Turning to `COC(=O)c1ccnc2cc(Cc3ccc(Cl)c(C(F)(F)F)c3)[nH]c12` [Example 135, methyl 2-[4-chloro-3-(trifluoromethyl)benzyl]-1H-pyrrolo[3,2-b]pyridine-7-carboxylate], the 50% inhibitory concentration (IC50) was less than 100 nM.

As for `COC(=O)c1ccnc2cc(Cc3ccc(Cl)c(Cl)c3)[nH]c12` [Example 129, methyl 2-(3,4-dichlorobenzyl)-1H-pyrrolo[3,2-b]pyridine-7-carboxylate], the IC50 was less than 100 nM.

In the case of `CNC(=O)c1ccnc2cc(Cc3ccc(Cl)c(OC(F)(F)F)c3)[nH]c12` [Example 144, 2-[4-chloro-3-(trifluoro-methoxy)benzyl]-N-methyl-1H-pyrrolo-[3,2-b]pyridine-7-carboxamide], the half-maximal inhibitory concentration (IC50) was less than 100 nM.
